# Experimental data reported in PMC9090415, “Discovery of small molecule inhibitors of Plasmodium falciparum apicoplast DNA polymerase” (Journal of Enzyme Inhibition and Medicinal Chemistry, 2022).
# Target: P. falciparum apicoplast DNA polymerase (Pf-apPOL) (Plasmodium falciparum, UniProt Q8ILY1)
# Assay: Fluorescence-based high-throughput DNA polymerase assay (molecular beacon), primary screen and dose-response
# Assay type: biochemical
# Method: The HT assay employs a molecular beacon, a stem-loop DNA template with a Cy3 dye and the Black Hole Quencher on the 3′ and 5′ ends of the DNA, respectively. Pf-apPOL concentration is based on a calculated absorptivity of ε280 = 56750 M^−1 cm^−1. Reactions were carried out at 25 °C, using Corning 3575 […] (well-volume, 20 µL). Assays testing for compound inhibition composed of reaction buffer (pH 7.9 in 50 mM potassium acetate, 20 mM Tris-acetate and 10 mM magnesium acetate), Pf-apPOL (20 nM), DNA substrate (20 nM), dNTPs (6 µM), and compound (10 µM in DMSO). The DNA and nucleotide substrates (dNTPs) were at concentrations of 20 nM and 6 µM, respectively, in the assay. Pf-apPOL was incubated in the reaction buffer with dNTPs and the compound of interest (10 µM, in the assay) at 25 °C for 10 min. The DNA substrate was then added and the reaction was allowed to proceed for 90 min at 25 °C.
# Each assay plate contained 16 negative controls (no Pf-apPOL, DMSO present) and 16 positive controls (Pf-apPOL present, no DMSO). The fluorescence of each well was determined using a BioTek Synergy Neo fluorescence plate reader using excitation and emission wavelengths of 555 and 570 nm, respectively.
# In the above, Min is the average of fluorescence emission of the negative controls (substrate only), Max the average fluorescence emission from the positive controls (enzyme + substrate), and Test the emission from the assays in the presence of compounds (enzyme + compound + substrates). […] […] The IC50 of each compound was determined using Equation (2): (2) IC50= Vmax/(1+ (I/IC50)^n)
# In the above, n measures cooperativity, with n > 1 indicating synergistic binding of more than a single molecule of the compound.
# To identify apPOL inhibitors we utilised our previously developed high-throughput DNA polymerase assay. The HT assay is based on a molecular beacon DNA template that forms a stem-loop with a Cy3 dye and the Black Hole Quencher on the 3′ and 5′ ends of the DNA, respectively. DNA polymerase activity extends an annealed primer through the stem region, displacing the fluorophore from the quencher, thereby increasing its fluorescence (Figure 1(A)). The assay accurately recapitulates the kinetic behaviour of apPOL, as measured through more conventional low-throughput gel-based assays. The Z′ factor for the assay described here was 0.9 across all plates (data not shown).
# Figure 1. High-throughput screening. (A) The fluorescent-based DNA polymerase assay used to screen the compound libraries. The DNA template strand is a hairpin loop with a primer annealed to the loop. The 3’ end of the primer is 11 bases away from the 6 bp duplex. Strand displacement activity of the DNA polymerase separates the Cy3 dye from the Black hole quencher leading to an increase in fluorescent signal. (B) The high-throughput assay workflow. The DNA polymerase is incubated with […] compound for 10 min prior to addition of the hairpin substrate. The reaction is quenched at 3 different time points and the fluorescent signal is measured and % inhibition is determined using the provided equation.
# P. falciparum apicoplast DNA polymerase (Pf-apPOL), sequence (Q8ILY1 entry or part of it): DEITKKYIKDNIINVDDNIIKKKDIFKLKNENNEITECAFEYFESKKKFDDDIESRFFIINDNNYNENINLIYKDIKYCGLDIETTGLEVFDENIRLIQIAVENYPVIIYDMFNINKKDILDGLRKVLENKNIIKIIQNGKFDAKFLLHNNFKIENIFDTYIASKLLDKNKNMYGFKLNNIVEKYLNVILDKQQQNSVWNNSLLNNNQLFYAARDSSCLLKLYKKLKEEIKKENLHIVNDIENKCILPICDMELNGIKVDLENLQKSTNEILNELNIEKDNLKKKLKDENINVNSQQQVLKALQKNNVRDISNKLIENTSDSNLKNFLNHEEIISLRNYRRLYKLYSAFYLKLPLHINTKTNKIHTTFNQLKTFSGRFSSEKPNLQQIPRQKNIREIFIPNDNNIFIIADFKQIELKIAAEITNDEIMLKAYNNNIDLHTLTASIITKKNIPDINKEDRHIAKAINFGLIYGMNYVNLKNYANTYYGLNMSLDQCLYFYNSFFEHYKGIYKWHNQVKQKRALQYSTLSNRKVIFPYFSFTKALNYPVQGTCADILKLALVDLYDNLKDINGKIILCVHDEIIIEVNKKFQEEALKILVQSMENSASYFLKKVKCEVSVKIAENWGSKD
structure (smiles),measurement,setting,value
Cc1ccnc(NS(=O)(=O)c2ccc(-n3cccc3)cc2)n1 [KU0034899],% inhibition Apo pol 10',DRC-1; concentration 2.5; 10',6.567%
same,% inhibition Apol 90',DRC-1; concentration 2.5; 90',1.285%
same,% inhibition apPOL 180',DRC-1; concentration 2.5; 180',-4.513%
same,% inhibition Apo pol 10',DRC-1; concentration 5; 10',25.8281%
same,% inhibition Apol 90',DRC-1; concentration 5; 90',11.3898%
same,% inhibition apPOL 180',DRC-1; concentration 5; 180',1.685%
same,% inhibition Apo pol 10',DRC-1; concentration 10; 10',43.5691%
same,% inhibition Apol 90',DRC-1; concentration 10; 90',23.2373%
same,% inhibition apPOL 180',DRC-1; concentration 10; 180',9.9045%
same,% inhibition Apo pol 10',DRC-1; concentration 20; 10',72.9985%
same,% inhibition Apol 90',DRC-1; concentration 20; 90',50.5873%
same,% inhibition apPOL 180',DRC-1; concentration 20; 180',29.9217%
same,% inhibition Apo pol 10',DRC-1; concentration 40; 10',90.805%
same,% inhibition Apol 90',DRC-1; concentration 40; 90',80.4805%
same,% inhibition apPOL 180',DRC-1; concentration 40; 180',67.6388%
same,% inhibition Apo pol 10',DRC-1; concentration 80 (unit not given); 10',93.2113%
same,% inhibition Apol 90',DRC-1; concentration 80; 90',92.1996%
same,% inhibition apPOL 180',DRC-1; concentration 80; 180',89.3134%
same,% inhibition Apol 40',DRC-2; 40'; concentration 80,59%
same,% inhibition ApPOL 90',DRC-2; 90'; concentration 20,59%
same,% inhibition Apo pol 5',DRC-2; concentration 2.5; 5',26%
same,% inhibition Apol 40',DRC-2; concentration 2.5; 40',31%
same,% inhibition ApPOL 90',DRC-2; concentration 2.5; 90',29%
same,% inhibition apPOL 180',DRC-2; concentration 2.5; 180',19%
same,% inhibition Apo pol 5',DRC-2; concentration 5; 5',23%
same,% inhibition Apol 40',DRC-2; concentration 5; 40',20%
same,% inhibition ApPOL 90',DRC-2; concentration 5; 90',14%
same,% inhibition apPOL 180',DRC-2; concentration 5; 180',0.78%
same,% inhibition Apo pol 5',DRC-2; concentration 10; 5',41%
same,% inhibition Apol 40',DRC-2; concentration 10; 40',42%
same,% inhibition ApPOL 90',DRC-2; concentration 10; 90',37%
same,% inhibition apPOL 180',DRC-2; concentration 10; 180',21%
same,% inhibition Apo pol 5',DRC-2; concentration 20; 5',49%
same,% inhibition Apol 40',DRC-2; concentration 20; 40',62%
same,% inhibition ApPOL 90',DRC-2; concentration 20; 90',59%
same,% inhibition apPOL 180',DRC-2; concentration 20; 180',48%
same,% inhibition Apo pol 5',DRC-2; concentration 40; 5',52%
same,% inhibition Apol 40',DRC-2; concentration 40; 40',73%
same,% inhibition ApPOL 90',DRC-2; concentration 40; 90',75%
same,% inhibition apPOL 180',DRC-2; concentration 40; 180',74%
same,% inhibition Apo pol 5',DRC-2; concentration 80; 5',17%
same,% inhibition Apol 40',DRC-2; concentration 80; 40',59%
same,% inhibition ApPOL 90',DRC-2; concentration 80; 90',67%
same,% inhibition apPOL 180',DRC-2; concentration 80; 180',76%
same,DNA Pol,"primary screen value of the 186 hits; unit not given; 90 min, 10 µM",40
same,DNA Pol,"primary screen value; head prints only 'DNA Pol'; 90 min, 10 µM",40
Nc1c(S(=O)(=O)O)cc(Nc2ccccc2)c2c1C(=O)c1ccccc1C2=O [KU0045407],DNA Pol,"'DNA Pol' of the 186 hits list (primary screen result); unit not given; 90 min, 10 µM",49
same,% inhibition Apo pol 10',DRC-1; 10'; concentration 2.5,39.3278%
same,% inhibition Apo pol 10',DRC-1; 10'; concentration 5,47.4944%
same,% inhibition Apo pol 10',DRC-1; 10'; concentration 10,57.4142%
same,% inhibition Apo pol 10',DRC-1; 10'; concentration 20,88.2417%
same,% inhibition Apo pol 10',DRC-1; 10'; concentration 40,98.9011%
same,% inhibition Apo pol 10',DRC-1; 10'; concentration 80,101.451%
same,% inhibition Apol 90',DRC-1; 90'; concentration 2.5,14.8722%
same,% inhibition Apol 90',DRC-1; 90'; concentration 5,18.228%
same,% inhibition Apol 90',DRC-1; 90'; concentration 10,36.638%
same,% inhibition Apol 90',DRC-1; 90'; concentration 20,73.4923%
same,% inhibition Apol 90',DRC-1; 90'; concentration 40,92.3698%
same,% inhibition Apol 90',DRC-1; 90'; concentration 80,99.716%
same,% inhibition apPOL 180',DRC-1; 180'; concentration 2.5,5.356%
same,% inhibition apPOL 180',DRC-1; 180'; concentration 5,9.027%
same,% inhibition apPOL 180',DRC-1; 180'; concentration 10,27.7566%
same,% inhibition apPOL 180',DRC-1; 180'; concentration 20,64.7558%
same,% inhibition apPOL 180',DRC-1; 180'; concentration 40,88.0246%
same,% inhibition apPOL 180',DRC-1; 180'; concentration 80,99.8487%
same,% inhibition Apo pol 5',"DRC-2, 5', concentration 10 (unit not given)",39%
same,% inhibition Apo pol 5',"DRC-2, 5', concentration 40 (unit not given)",75%
same,% inhibition Apol 40',"DRC-2, 40', concentration 5 (unit not given)",15%
same,% inhibition Apol 40',"DRC-2, 40', concentration 20 (unit not given)",81%
same,% inhibition Apol 40',"DRC-2, 40', concentration 40 (unit not given)",86%
same,% inhibition ApPOL 90',"DRC-2, 90', concentration 10 (unit not given)",39%
same,% inhibition ApPOL 90',"DRC-2, 90', concentration 20 (unit not given)",81%
same,% inhibition apPOL 180',"DRC-2, 180', concentration 20 (unit not given)",75%
same,% inhibition apPOL 180',"DRC-2, 180', concentration 80 (unit not given)",86%
same,% inhibition Apo pol 5',DRC-2; 5'; concentration 2.5,2.61%
same,% inhibition Apo pol 5',DRC-2; 5'; concentration 5,15%
same,% inhibition Apo pol 5',DRC-2; 5'; concentration 5 (unit not given),15%
same,% inhibition Apo pol 5',DRC-2; 5'; concentration 10,39%
same,% inhibition Apo pol 5',DRC-2; 5'; concentration 20,73%
same,% inhibition Apo pol 5',DRC-2; 5'; concentration 40,75%
same,% inhibition Apo pol 5',DRC-2; 5'; concentration 80,62%
same,% inhibition Apol 40',DRC-2; 40'; concentration 2.5,1.87%
same,% inhibition Apol 40',DRC-2; 40'; concentration 5,15%
same,% inhibition Apol 40',DRC-2; 40'; concentration 10,40%
same,% inhibition Apol 40',DRC-2; 40'; concentration 20,81%
same,% inhibition Apol 40',DRC-2; 40'; concentration 40,86%
same,% inhibition Apol 40',DRC-2; 40'; concentration 80,80%
same,% inhibition ApPOL 90',DRC-2; 90'; concentration 2.5,2.58%
same,% inhibition ApPOL 90',DRC-2; 90'; concentration 5,14%
same,% inhibition ApPOL 90',DRC-2; 90'; concentration 10,39%
same,% inhibition ApPOL 90',DRC-2; 90'; concentration 20,81%
same,% inhibition ApPOL 90',DRC-2; 90'; concentration 40,87%
same,% inhibition ApPOL 90',DRC-2; 90'; concentration 80,83%
same,% inhibition apPOL 180',DRC-2; 180'; concentration 2.5,3.63%
same,% inhibition apPOL 180',DRC-2; 180'; concentration 5,5%
same,% inhibition apPOL 180',DRC-2; 180'; concentration 10,30%
same,% inhibition apPOL 180',DRC-2; 180'; concentration 20,75%
same,% inhibition apPOL 180',DRC-2; 180'; concentration 40,85%
same,% inhibition apPOL 180',DRC-2; 180'; concentration 80,86%
same,DNA Pol,"primary screen value of the library well; unit not given; 90 min, 10 µM",49
